This assay deals with T1, human FSH receptor (Homo sapiens, UniProt P23945).
T1 construct: expressed in transfected cells; host or cells: CHO cells (hFSHR clone 16)
T1 sequence (P23945 18-695): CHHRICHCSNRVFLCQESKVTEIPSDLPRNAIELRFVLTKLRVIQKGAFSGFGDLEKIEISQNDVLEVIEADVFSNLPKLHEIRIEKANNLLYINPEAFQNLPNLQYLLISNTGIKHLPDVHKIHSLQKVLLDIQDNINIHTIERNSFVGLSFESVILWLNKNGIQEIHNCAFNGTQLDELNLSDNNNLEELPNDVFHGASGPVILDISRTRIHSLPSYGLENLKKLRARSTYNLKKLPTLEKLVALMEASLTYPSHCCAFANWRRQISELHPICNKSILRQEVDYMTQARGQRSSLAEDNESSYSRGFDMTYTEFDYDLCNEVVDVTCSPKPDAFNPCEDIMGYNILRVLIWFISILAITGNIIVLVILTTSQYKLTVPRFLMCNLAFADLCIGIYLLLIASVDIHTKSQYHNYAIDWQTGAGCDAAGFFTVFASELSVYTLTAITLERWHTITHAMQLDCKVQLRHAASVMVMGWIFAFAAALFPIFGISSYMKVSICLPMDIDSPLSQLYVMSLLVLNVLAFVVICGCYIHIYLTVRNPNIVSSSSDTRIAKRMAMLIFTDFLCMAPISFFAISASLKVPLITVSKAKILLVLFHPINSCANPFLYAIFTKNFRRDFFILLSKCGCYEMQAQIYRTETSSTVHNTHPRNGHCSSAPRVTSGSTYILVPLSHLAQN
The assay can be described thus: HTRF assay for measuring cAMP in cells (FSH antagonism). The assay is classed as cell-based. Particulars: FSH-antagonistic effect; hFSHR clone 16 cells (CHO cells stably transfected with the human FSH receptor); in the presence of 1e-9 mol/l hFSH; 37°C for 2h. The procedure: The method is based on a competitive immunoassay between native cAMP, which has been produced by the cells, and cAMP which is labelled with cAMPD2 conjugate. The tracer binding was visualized by a monoclonal antibody, anti-cAMP labelled with cryptate [HTRF = homogeneous time-resolved fluorescence]. The specific signal is inversely proportional to the cAMP concentration of the samples employed. The 665nm/ 620nm fluorescence ratio was evaluated.
Materials used: 96-well plates for the tissue culture, 96-well plates with black edge and black base (e.g. Fluotrac 600 from Greiner), 96-well plates for the substance dilutions of polypropylene and cAMP Femtomolar (4000wells Kit, CIS Bio International # 62AM5PEJ). Reagent used: BSA (bovine serum albumin) Fraction V protease-free, IBMX (3-isobutyl-1-methylxanthine), hFSH (human follicle stimulating hormone), Triton X-100 analytical grade, potassium fluoride analytical grade, G 418 (Geneticin) and Accutase.
Buffer 1 (washing and testing buffer) contained PBS, 1 mM CaCl2, 1 mM MgCl2, 0.2% glucose; 0.1% BSA, 1 mM IBMX.
Buffer 2 (2x lysis buffer) contained 1% Triton X-100 in PBS (without CaCl2 and MgCl2).
Buffer 3 (assay buffer) contained 50 mM potassium phosphate buffer (pH 7.0); 800 mM potassium fluoride; 0.2% BSA (always added fresh).
On day 1, the cells were seeded in 96-well plates (3x10^4 cells per well hFSHR clone 16 cells (CHO cells stably transfected with the human FSH receptor in 150 µl of medium). The next day, test substance dilutions were made up. For this purpose, all the substances were diluted in ice-cold buffer 1 (with or without hFSH), and the substance dilutions were placed on ice until applied to the cells. The cell supernatant was then aspirated off, and the cells were washed 2x with 200 µl of buffer 1. The cells were treated with 60 µl of the appropriate substance concentrations at 37°C for 2h. The cells were then lysed with 60 µl of buffer 2 (put onto the supernatant) (on a plate shaker at RT for 30 min). The test conjugates (cAMP-D2 and anti-cAMP cryptate, CIS Bio) were diluted in buffer 3 in accordance with the manufacturers' information. The actual mixture for measurement was pipetted into a black 96-well plate (in each case 15 µl of the cell lysate diluted with 35 µl of buffer 1; firstly 25 µl of cAMP-D2 conjugate were pipetted and, after 10 min, 25 µl of the anti-cAMP cryptate were added). This is followed by incubation at RT for 90 minutes. The measurement was carried out in a PheraStar (BMG).
Dose-effect curve (hFSH) for the human receptor: 1 e-8, 3e-9, 1 e-9, 3e-10, 1e-10, 3e-11, 1 e-11, 3e-12 mol/I. The test substances were employed in suitable dilutions in the absence (test for agonism) and in the presence of 1e-9 mol/l hFSH.
The values of the well ratio were averaged and then entered directly in SigmaPlot versus the concentrations. The maximum and minimum values were determined for each plate, and half the difference is to be regarded as IC50. […] Table 1. FSH-antagonistic effect of selected compounds in the HTRF assay
(Time-resolved FRET reads energy transfer from a long-lived donor to a nearby acceptor.)
With `CCCOc1ccc(C#Cc2ccccc2OC)cc1C(=O)N[C@@H](CO)Cc1c[nH]c2ccccc12` [Example 2, N-[(R)-1-Hydroxymethyl-2-(1H-indol-3-yl)-ethyl]-5-(2-methoxyphenylethynyl)-2-propoxy-benzamide], the IC50 (usually the midpoint of a concentration-inhibition curve) is 70 nM.

Consider `COc1ccccc1C#Cc1ccc(OC(C)C)c(C(=O)N[C@H](CO)Cc2c[nH]c3ccccc23)c1` [Example 4, N-[(S)-1-Hydroxymethyl-2-(1H-indol-3-yl)-ethyl]-2-isopropoxy-5-(2-methoxy-phenylethynyl)-benzamide], for which the IC50 came out at 7500 nM.

For `COc1ccccc1C#Cc1ccc(OC(C)C)c(C(=O)N[C@H](Cc2c[nH]c3ccccc23)C(C)(C)O)c1` [Example 20, N-[(R)-2-Hydroxy-1-(1H-indol-3-ylmethyl)-2-methyl-propyl]-2-isopropoxy-5-(2-methoxy-phenylethynyl)-benzamide], the IC50 stood at 700 nM.

Consider `COc1ccccc1C#Cc1cc(C(=O)N[C@@H](CO)Cc2c[nH]c3ccccc23)c2ccccc2c1` [Example 6, 3-(2-Methoxy-phenylethynyl)-naphthalene-1-carboxylic acid [(R)-1-hydroxymethyl-2-(1H-indol-3-yl)-ethyl]-amide], for which the IC50 came to 100 nM.

In the case of `CCn1cc(C[C@H](CO)NC(=O)c2cc(C#Cc3ccccc3OC)ccc2OC(C)C)c2ccccc21` [Example 24, N-[(R)-2-(1-Ethyl-1H-indol-3-yl)-1-hydroxymethyl-ethyl]-2-isopropoxy-5-(2-methoxy-phenylethynyl)-benzamide], the IC50 is 20 nM.

In the case of `CC(C)Oc1ccc(C#Cc2ccccc2)cc1C(=O)NC(CO)Cc1c[nH]c2ccc(F)cc12` (stereo not shown) [Example 21, N-[2-(5-Fluoro-1H-indol-3-yl)-1-hydroxymethyl-ethyl]-2-isopropoxy-5-phenylethynyl-benzamide], the IC50 came out at 300 nM.

For the molecule `CCCOc1ccc(C#Cc2ccccc2)cc1C(=O)N[C@@H](CO)Cc1c[nH]c2ccccc12` [Example 1, N-[(R)-1-Hydroxymethyl-2-(1H-indol-3-yl)-ethyl]-5-phenylethynyl-2-propoxybenzamide], the IC50 came to 250 nM.

Take `Cc1ccccc1C#Cc1ccc(OC(C)C)c(C(=O)N[C@@H](CO)Cc2c[nH]c3ccccc23)c1` [Example 5, N-[(R)-1-Hydroxymethyl-2-(1H-indol-3-yl)-ethyl]-2-isopropoxy-5-o-tolylethynyl-benzamide]: the IC50 worked out at 80 nM.

For the molecule `COc1ccccc1C#Cc1ccc(OC(C)C)c(C(=O)NC(CO)Cc2c[nH]c3cc(F)c(F)cc23)c1` (racemic) [Example 23, N-[(RS)-2-(5,6-Difluoro-1H-indol-3-yl)-1-hydroxymethyl-ethyl]-2-isopropoxy-5-(2-methoxy-phenylethynyl)-benzamide], the half-maximal inhibitory concentration (IC50) amounted to 30 nM.

As to `COc1ccccc1C#Cc1ccc(OC(C)C)c(C(=O)NC(CO)Cc2c[nH]c3ccc(F)cc23)c1` (stereo not shown) [Example 22, N-[2-(5-Fluoro-1H-indol-3-yl)-1-hydroxymethyl-ethyl]-2-isopropoxy-5-(2-methoxy-phenylethynyl)-benzamide], the IC50 is 150 nM.

For the origin of these results see EP1932831A1, “1,2-Diarylacetylene Derivatives of Acyltryptophanols” (Bayer Schering Pharma Aktiengesellschaft, priority 2006, dated 2008).
